Measurements: patent publication US20240425479A1, “HALO-SUBSTITUTED AMINO AZA-HETEROARYL COMPOUNDS AS INHIBITORS OF THE HAEMATOPOIETIC PROGENITOR KINASE 1 (HPK1)” (priority 2021, published 2024)

Target: T1, Recombinant (1-346) HPK1 (h) (Homo sapiens, UniProt Q92918)
T1 construct: Recombinant (1-346) HPK1 (h) is incubated with 8 mM MOPS pH 7.0
T1 sequence (Q92918 1-346): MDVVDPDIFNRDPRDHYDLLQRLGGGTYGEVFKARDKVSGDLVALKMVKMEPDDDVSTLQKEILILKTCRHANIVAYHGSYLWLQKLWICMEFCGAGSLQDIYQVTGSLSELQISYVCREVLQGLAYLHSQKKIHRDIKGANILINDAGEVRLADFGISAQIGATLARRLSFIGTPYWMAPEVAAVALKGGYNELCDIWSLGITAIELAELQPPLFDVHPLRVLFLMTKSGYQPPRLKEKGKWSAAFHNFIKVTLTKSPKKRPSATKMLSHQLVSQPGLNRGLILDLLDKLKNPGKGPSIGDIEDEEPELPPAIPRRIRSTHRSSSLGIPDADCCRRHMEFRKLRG
Assay: HPK1 human STE kinase enzymatic radiometric assay
Assay type: biochemical
Settings: read-out: HPK1 IC50 nM Range
Method: (a) HPK1 Human STE Kinase Enzymatic Radiometric Assay
A stock solution of 10 mM of test compound is prepared in DMSO. The compound plate was prepared by 3-fold and 9-point serial dilutions. Recombinant (1-346) HPK1 (h) is incubated with 8 mM MOPS pH 7.0, 0.2 mM EDTA, 0.33 mg/mL myelin basic protein, 10 mM MgAcetate and [gamma-33P]-ATP (specific activity and concentration as required). The reaction is initiated by the addition of the Mg/ATP mix. After incubation for 40 minutes at RT, the reaction is stopped by the addition of phosphoric acid to a concentration of 0.5%, 10 μL of the reaction is then spotted onto a P30 filtermat and washed four times for 4 minutes in 0.425% phosphoric acid and once in methanol prior to drying and scintillation counting. For more details of kinase assay protocols, see: Gao, Y. et. al.; Biochem J.451 (2): 313-328, 2013.

| Structure (SMILES) | IC50 [nM] |
| --- | --- |
| Nc1nc(F)c(-c2ccc(N3CCOCC3)c(CN3CCCCC3)c2)nc1-c1cc2c(cc1F)C(=O)NCC2 [Example I-186, 6-(3-amino-5-fluoro-6-(4-morpholino-3-(piperidin-1-ylmethyl)phenyl)pyrazin-2-yl)-7-fluoro-3,4-dihydroisoquinolin-1(2H)-one] | 11 to 100 |
| CN(C)Cc1cc(-c2nc(-c3ccc4c(c3)CCNC4=O)c(N)nc2F)c(F)c(F)c1N1CCOCC1 [Example I-262, 6-(3-amino-6-(5-((dimethylamino)methyl)-2,3-difluoro-4-morpholinophenyl)-5-fluoropyrazin-2-yl)-3,4-dihydroisoquinolin-1(2H)-one] | 101 to 1000 |
| Cc1c[nH]c(=O)c2ccc(-c3nc(-c4cnc(N5CCOCC5)c(CN(C)C)c4)c(F)nc3N)cc12 [Example I-236, 6-(3-amino-6-(5-((dimethylamino)methyl)-6-morpholinopyridin-3-yl)-5-fluoropyrazin-2-yl)-4-methylisoquinolin-1(2H)-one] | 11 to 100 |
| C[C@H]1CN(c2ccc(-c3nc(-c4cc(F)c5c(c4)CCNC5=O)c(N)nc3F)cc2CN2CCC2)CCO1 [Example I-216, (S)-6-(3-amino-6-(3-(azetidin-1-ylmethyl)-4-(2-methylmorpholino)phenyl)-5-fluoropyrazin-2-yl)-8-fluoro-3,4-dihydroisoquinolin-1(2H)-one] | 11 to 100 |
| CN(C)[C@@H]1COc2ccc(-c3nc(-c4ccc5c(=O)[nH]ccc5c4)c(N)nc3F)cc21 [Example I-283, (S)-6-(3-amino-6-(3-(dimethylamino)-2,3-dihydrobenzofuran-5-yl)-5-fluoropyrazin-2-yl)isoquinolin-1(2H)-one] | 11 to 100 |
| Nc1nc(F)c(-c2ccc(N3CCOCC3)c(CN3CCC3)c2F)nc1-c1cc2c(cc1F)C(=O)NCC2 [Example I-244, 6-(3-amino-6-(3-(azetidin-1-ylmethyl)-2-fluoro-4-morpholinophenyl)-5-fluoropyrazin-2-yl)-7-fluoro-3,4-dihydroisoquinolin-1(2H)-one] | 11 to 100 |
| CN(C)Cc1cc(-c2nc(-c3cc(F)c4c(c3)CCNC4=O)c(N)nc2F)ccc1N1CCOCC1 [Example I-88, 6-(3-amino-6-(3-((dimethylamino)methyl)-4-morpholinophenyl)-5-fluoropyrazin-2-yl)-8-fluoro-3,4-dihydroisoquinolin-1(2H)-one] | 11 to 100 |
| COc1c[nH]c(=O)c2ccc(-c3nc(-c4ccc(N5CCN(C(C)C)CC5)cc4)c(F)nc3N)cc12 [Example I-119, 6-(3-amino-5-fluoro-6-(4-(4-isopropylpiperazin-1-yl)phenyl)pyrazin-2-yl)-4-methoxyisoquinolin-1(2H)-one] | 11 to 100 |
| CN1CCN(c2ccc(-c3nc(-c4ccc5c(c4)CCNC5=O)c(N)nc3F)cc2)CC1 [Example I-41, 6-(3-amino-5-fluoro-6-(4-(4-methylpiperazin-1-yl)phenyl)pyrazin-2-yl)-3,4-dihydroisoquinolin-1(2H)-one] | 0.1 to 10 |
| COC1CCN(Cc2cc(-c3nc(-c4cc5c(cc4F)C(=O)NCC5)c(N)nc3F)ccc2N2CCOCC2)CC1 [Example I-118, 6-(3-amino-5-fluoro-6-(3-((4-methoxypiperidin-1-yl)methyl)-4-morpholinophenyl)pyrazin-2-yl)-7-fluoro-3,4-dihydroisoquinolin-1(2H)-one] | 11 to 100 |
| Cc1cc(-c2nc(-c3cc4c(cc3F)C(=O)NCC4)c(N)nc2F)ccc1C1CCOCC1 [Example I-222, 6-(3-amino-5-fluoro-6-(3-methyl-4-(tetrahydro-2H-pyran-4-yl)phenyl)pyrazin-2-yl)-7-fluoro-3,4-dihydroisoquinolin-1(2H)-one] | 0.1 to 10 |
| CC(C)N1CCN(c2ccc(-c3nc(-c4cc5c(F)c[nH]c(=O)c5cc4F)c(N)nc3F)cc2)CC1 [Example I-140, 6-(3-amino-5-fluoro-6-(4-(4-isopropylpiperazin-1-yl)phenyl)pyrazin-2-yl)-4,7-difluoroisoquinolin-1(2H)-one] | 0.1 to 10 |
| Cc1[nH]c(=O)c2ccc(-c3nc(-c4ccc(N5CCOCC5)c(CN(C)C)c4)c(F)nc3N)cc2c1Cl [Example I-124, 6-(3-amino-6-(3-((dimethylamino)methyl)-4-morpholinophenyl)-5-fluoropyrazin-2-yl)-4-chloro-3-methylisoquinolin-1(2H)-one] | 0.1 to 10 |

Next, values leading:

| IC50 [nM] | Structure (SMILES) |
| --- | --- |
| 0.1 to 10 | Cc1c[nH]c(=O)c2ccc(-c3nc(-c4ccc(C5CCOCC5)c(CN5CCC5)c4)c(F)nc3N)cc12 [Example I-206, 6-(3-amino-6-(3-(azetidin-1-ylmethyl)-4-(tetrahydro-2H-pyran-4-yl)phenyl)-5-fluoropyrazin-2-yl)-4-methylisoquinolin-1(2H)-one] |
| 0.1 to 10 | Cc1c[nH]c(=O)c2c(F)cc(-c3nc(-c4ccc(C5CCOCC5)c(CN(C)C)c4)c(F)nc3N)cc12 [Example I-167, 6-(3-amino-6-(3-((dimethylamino)methyl)-4-(tetrahydro-2H-pyran-4-yl)phenyl)-5-fluoropyrazin-2-yl)-8-fluoro-4-methylisoquinolin-1(2H)-one] |
| 0.1 to 10 | Cc1cc(-c2nc(-c3cc(F)c4c(c3)CCNC4=O)c(N)nc2F)ccc1C1CCOCC1 [Example I-221, 6-(3-amino-5-fluoro-6-(3-methyl-4-(tetrahydro-2H-pyran-4-yl)phenyl)pyrazin-2-yl)-8-fluoro-3,4-dihydroisoquinolin-1(2H)-one] |
| 0.1 to 10 | Nc1nc(F)c(-c2ccc(N3CCN(CCCC(F)F)CC3)cc2)nc1-c1cc(F)c2c(c1)CCNC2=O [Example I-137, 6-(3-amino-6-(4-(4-(4,4-difluorobutyl)piperazin-1-yl)phenyl)-5-fluoropyrazin-2-yl)-8-fluoro-3,4-dihydroisoquinolin-1(2H)-one] |
| 0.1 to 10 | COCCN(C)Cc1cc(-c2nc(-c3cc4c(cc3F)C(=O)NCC4)c(N)nc2F)ccc1N1CCOCC1 [Example I-161, 6-(3-amino-5-fluoro-6-(3-(((2-methoxyethyl)(methyl)amino)methyl)-4-morpholinophenyl)pyrazin-2-yl)-7-fluoro-3,4-dihydroisoquinolin-1(2H)-one] |
| 0.1 to 10 | COC1CN(Cc2cc(-c3nc(-c4cc(F)c5c(c4)CCNC5=O)c(N)nc3F)ccc2N2CCOCC2)C1 [Example I-192, 6-(3-amino-5-fluoro-6-(3-((3-methoxyazetidin-1-yl)methyl)-4-morpholinophenyl)pyrazin-2-yl)-8-fluoro-3,4-dihydroisoquinolin-1(2H)-one] |
| 0.1 to 10 | CC(C)N1CCN(c2ccc(-c3nc(-c4cc5c(cc4F)C(=O)NCC5)c(N)nc3F)cc2)[C@H](C)C1 [Example I-51, (R)-6-(3-amino-5-fluoro-6-(4-(4-isopropyl-2-methylpiperazin-1-yl)phenyl)pyrazin-2-yl)-7-fluoro-3,4-dihydroisoquinolin-1(2H)-one] |
| 0.1 to 10 | COCCN(C)Cc1cc(-c2nc(-c3cc(F)c4c(c3)CCNC4=O)c(N)nc2F)ccc1N1CCOCC1 [Example I-162, 6-(3-amino-5-fluoro-6-(3-(((2-methoxyethyl)(methyl)amino)methyl)-4-morpholinophenyl)pyrazin-2-yl)-8-fluoro-3,4-dihydroisoquinolin-1(2H)-one] |
| 0.1 to 10 | Nc1nc(F)c(-c2ccc(C3CCOCC3)c([C@@H]3CCCN3)c2)nc1-c1cc2c(cc1F)C(=O)NCC2 [Example I-19, (S)-6-(3-amino-5-fluoro-6-(3-(pyrrolidin-2-yl)-4-(tetrahydro-2H-pyran-4-yl)phenyl)pyrazin-2-yl)-7-fluoro-3,4-dihydroisoquinolin-1(2H)-one] |
| 0.1 to 10 | Nc1nc(F)c(-c2ccc(N3CCOCC3)cc2)nc1-c1cc2c(cc1F)C(=O)NCC2 [Example I-34, 6-(3-amino-5-fluoro-6-(4-morpholinophenyl)pyrazin-2-yl)-7-fluoro-3,4-dihydroisoquinolin-1(2H)-one] |
| 0.1 to 10 | CN1CC2(CCN(c3ccc(-c4nc(-c5cc6c(cc5F)C(=O)NCC6)c(N)nc4F)cc3)CC2)C1 [Example I-61, 6-(3-amino-5-fluoro-6-(4-(2-methyl-2,7-diazaspiro[3.5]nonan-7-yl)phenyl)pyrazin-2-yl)-7-fluoro-3,4-dihydroisoquinolin-1(2H)-one] |
| 0.1 to 10 | Cc1cc2cc(-c3nc(-c4ccc(N5CCOCC5)c(CN(C)C)c4)c(F)nc3N)c(F)cc2c(=O)[nH]1 [Example I-183, 6-(3-amino-6-(3-((dimethylamino)methyl)-4-morpholinophenyl)-5-fluoropyrazin-2-yl)-7-fluoro-3-methylisoquinolin-1(2H)-one] |
| 0.1 to 10 | Cc1c[nH]c(=O)c2ccc(-c3nc(-c4ccc5c(c4)[C@H](N(C)C)CCO5)c(F)nc3N)cc12 [Example I-285, (R)-6-(3-amino-6-(4-(dimethylamino)chroman-6-yl)-5-fluoropyrazin-2-yl)-4-methylisoquinolin-1(2H)-one] |
| 0.1 to 10 | CCN1CCN(c2ccc(-c3nc(-c4cc5c(cc4F)C(=O)NCC5)c(N)nc3F)cc2)CC1 [Example I-56, 6-(3-amino-6-(4-(4-ethylpiperazin-1-yl)phenyl)-5-fluoropyrazin-2-yl)-7-fluoro-3,4-dihydroisoquinolin-1(2H)-one] |
